Measured values from patent US8993565B2, “(6-oxo-1,6-dihydropyrimidin-2-yl)amide derivatives, preparation thereof and pharmaceutical use thereof as AKT(PKB) phosphorylation inhibitors” (Sanofi, priority 2009, dated 2015).

Key:
[1] = system: AKT protein phosphorylated on serine 473 (P-AKT-S473); assay: Study of pAKT expression in PC3 human prostate carcinoma cells measured by the MSD Multi-spot Biomarker Detection technique (Test B); assay type: cell-based; details: PC-3, inhibition of AKT phosphorylation (P-AKT-S473), MSD sandwich immunoassay, 1 to 2 h incubation, absolute IC50, mean of 2 experiments
In short: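 Lysate P-AKT-S473 quantified by MSD electrochemiluminescent sandwich immunoassay; inhibition vs DMSO and cell-free background, IC50 averaged over 2 experiments.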

Row | melting point [°C] | IC50 [1] [nM] | Compound
1 | > 260 | 71 | O=C(Cc1nc(N2CCOCC2)cc(=O)[nH]1)Nc1cc(F)cc(F)c1 [Example 13, N-(3,5-difluorophenyl)-2-[4-(morpholin-4-yl)-6-oxo-1,6-dihydropyrimidin-2-yl]acetamide]
2 | 238 | 195 | CCn1c(CC(=O)Nc2ccc(F)cc2)nc(N2CCOCC2)cc1=O [Example 70, 2-[1-ethyl-4-(morpholin-4-yl)-6-oxo-1,6-dihydropyrimidin-2-yl]-N-(4-fluorophenyl)acetamide]
3 | 266 | 89 | CC(C)C(C(=O)Nc1ccc(F)cc1)c1nc(N2CCOCC2)cc(=O)[nH]1 (stereo not drawn) [Example 72, N-(4-fluorophenyl)-3-methyl-2-[4-(morpholin-4-yl)-6-oxo-1,6-dihydropyrimidin-2-yl]butanamide]
4 | 229 | 69 | O=C(Cc1nc(N2CCOCC2)cc(=O)[nH]1)Nc1cccc(OC(F)(F)C(F)F)c1 [Example 75, 2-[4-(morpholin-4-yl)-6-oxo-1,6-dihydropyrimidin-2-yl]-N-[3-(1,1,2,2-tetrafluoroethoxy)phenyl]acetamide]
5 | 216 | 133 | Cn1c(CC(=O)Nc2cccc(C3CC3)c2)nc(N2CCOCC2)cc1=O [Example 82, N-(3-cyclopropylphenyl)-2-[1-methyl-4-(morpholin-4-yl)-6-oxo-1,6-dihydropyrimidin-2-yl]acetamide]
6 | 245 | 26 | Cn1c(CC(=O)Nc2ccc(F)c(C3CC3)c2)nc(N2CCOCC2)cc1=O [Example 86, N-(3-cyclopropyl-4-fluorophenyl)-2-[1-methyl-4-(morpholin-4-yl)-6-oxo-1,6-dihydropyrimidin-2-yl]acetamide]
7 | 244 | 43 | Cn1c(CC(=O)N2CCc3c(F)cccc32)nc(N2CCOCC2)cc1=O [Example 102, 2-[2-(4-fluoro-2,3-dihydro-1H-indol-1-yl)-2-oxoethyl]-3-methyl-6-(morpholin-4-yl)pyrimidin-4(3H)-one]
8 | 235 | 42 | Cn1c(CC(=O)N2CCc3c(Cl)cccc32)nc(N2CCOCC2)cc1=O [Example 104, 2-[2-(4-chloro-2,3-dihydro-1H-indol-1-yl)-2-oxoethyl]-3-methyl-6-(morpholin-4-yl)pyrimidin-4(3H)-one]
9 | 200 | 27 | O=C(Cc1nc(N2CCOCC2)cc(=O)[nH]1)N1c2ccccc2CC1CO (stereo not drawn) [Example 106, 2-{2-[2-(hydroxymethyl)-2,3-dihydro-1 H-indol-1-yl]-2-oxoethyl}-6-(morpholin-4-yl)pyrimidin-4(3H)-one]
10 | 229 | 278 | COc1cccc2c1CCN2C(=O)Cc1nc(N2CCOCC2)cc(=O)n1C [Example 110, 2-[2-(4-methoxy-2,3-dihydro-1H-indol-1-yl)-2-oxoethyl]-3-methyl-6-(morpholin-4-yl)pyrimidin-4(3H)-one]
11 | 107.5 | 301 | O=C(Cc1nc(N2CCOCC2)cc(=O)[nH]1)N1CCc2ccccc2C1 [Example 111, 2-[2-(3,4-dihydroisoquinolin-2(1H)-yl)-2-oxoethyl]-6-(morpholin-4-yl)pyrimidin-4(3H)-one]
12 | 239 | 26 | Cc1cccc2c1CCN2C(=O)Cc1nc(N2CCOCC2)cc(=O)n1C [Example 114, 3-methyl-2-[2-(4-methyl-2,3-dihydro-1H-indol-1-yl)-2-oxoethyl]-6-(morpholin-4-yl)pyrimidin-4(3H)-one]
13 | 243 | 10 | CN(C)CC1CN(C(=O)Cc2nc(N3CCOCC3)cc(=O)[nH]2)c2ccccc21 (stereo not drawn) [Example 115, 2-[2-(3-dimethylaminomethyl-2,3-dihydroindol-1-yl)-2-oxoethyl]-6-morpholin-4-yl-3H-pyrimidin-4-one]
14 | 226 | 51 | Cn1c(CC(=O)N2CCc3c(Br)cccc32)nc(N2CCOCC2)cc1=O [Example 116, 2-[2-(4-bromo-2,3-dihydro-1 H-indol-1-yl)-2-oxoethyl]-3-methyl-6-(morpholin-4-yl)pyrimidin-4(3H)-one]
15 | 225 | 194 | CC1CN(C(=O)Cc2nc(N3CCOCC3)cc(=O)n2C)c2ccccc21 (stereo not drawn) [Example 119, 3-methyl-2-[2-(3-methyl-2,3-dihydro-1H-indol-1-yl)-2-oxoethyl]-6-(morpholin-4-yl)pyrimidin-4(3H)-one]
16 | 112 to 115 | 11 | COCC1Cc2ccccc2N1C(=O)Cc1nc(N2CCOCC2)cc(=O)[nH]1 (stereo not drawn) [Example 120, 2-{2-[2-(methoxymethyl)-2,3-dihydro-1H-indol-1-yl]-2-oxoethyl}-6-(morpholin-4-yl)pyrimidin-4(3H)-one]
17 | 257 | 44 | CCOc1cccc2c1CCN2C(=O)Cc1nc(N2CCOCC2)cc(=O)[nH]1 [Example 121, 2-[2-(4-ethoxy-2,3-dihydro-1H-indol-1-yl)-2-oxoethyl]-6-(morpholin-4-yl)pyrimidin-4(3H)-one]
18 | 148 | 77 | CC1Cc2ccccc2N1C(=O)Cc1nc(N2CCOCC2)cc(=O)n1C (stereo not drawn) [Example 123, 3-methyl-2-[2-(2-methyl-2,3-dihydro-1H-indol-1-yl)-2-oxoethyl]-6-(morpholin-4-yl)pyrimidin-4(3H)-one]
19 | 223 | 124 | Cn1c(CC(=O)N2CCc3ccc(F)cc32)nc(N2CCOCC2)cc1=O [Example 124, 2-[2-(6-fluoro-2,3-dihydro-1H-indol-1-yl)-2-oxoethyl]-3-methyl-6-(morpholin-4-yl)pyrimidin-4(3H)-one]
20 | 250 | 61 | Cn1c(CC(=O)N2CCc3cc(F)c(F)cc32)nc(N2CCOCC2)cc1=O [Example 127, 2-[2-(5,6-difluoro-2,3-dihydro-1H-indol-1-yl)-2-oxoethyl]-3-methyl-6-(morpholin-4-yl)pyrimidin-4(3H)-one]
21 | 254 | 70 | Cn1c(CC(=O)Nc2cccc3sccc23)nc(N2CCOCC2)cc1=O [Example 130, N-(1-benzothiophen-4-yl)-2-[1-methyl-4-(morpholin-4-yl)-6-oxo-1,6-dihydropyrimidin-2-yl]acetamide]
22 | 238 | 41 | O=C(Cc1nc(N2CCOCC2)cc(=O)[nH]1)N1CCCc2c(Cl)cccc21 [Example 131, 2-[2-(5-chloro-3,4-dihydroquinolin-1(2H)-yl)-2-oxoethyl]-6-(morpholin-4-yl)pyrimidin-4(3H)-one]
23 | 234 | 533 | O=C(Cc1nc(N2CCOCC2)cc(=O)[nH]1)N1CCc2c(CO)cccc21 [Example 132, 2-{2-[4-(hydroxymethyl)-2,3-dihydro-1H-indol-1-yl]-2-oxoethyl}-6-(morpholin-4-yl)pyrimidin-4(3H)-one]
24 | 256 | 26 | CN(C)C[C@H]1CN(C(=O)Cc2nc(N3CCOCC3)cc(=O)[nH]2)c2ccccc21 [Example 136, 2-(2-{(3S)-3-[(dimethylamino)methyl]-2,3-dihydro-1H-indol-1-yl}-2-oxoethyl)-6-(morpholin-4-yl)pyrimidin-4(3H)-one]
25 | 243 | 473 | O=C(Cc1nc(N2CCOCC2)cc(=O)[nH]1)Nc1cccc2c1OCCN2 [Example 143, N-(3,4-dihydro-2H-1,4-benzoxazin-8-yl)-2-[4-(morpholin-4-yl)-6-oxo-1,6-dihydropyrimidin-2-yl]acetamide]
26 | 202 | 38 | CCN(CC)CC1CN(C(=O)Cc2nc(N3CCOCC3)cc(=O)[nH]2)c2ccccc21 (stereo not drawn) [Example 145, 2-(2-{3-[(diethylamino)methyl]-2,3-dihydro-1 H-indol-1-yl}-2-oxoethyl)-6-(morpholin-4-yl)pyrimidin-4(3 H)-one]
27 | 232 | 234 | O=C(Cc1nc(N2CCOCC2)cc(=O)[nH]1)Nc1cccc2c1NCCC2 [Example 148, 2-[4-(morpholin-4-yl)-6-oxo-1,6-dihydropyrimidin-2-yl]-N-(1,2,3,4-tetrahydroquinolin-8-yl)acetamide]
